Data set [1] concerns the target T1, AR (Homo sapiens, UniProt P10275, T878A).
T1 construct: host or cells: LNCaP
T1 sequence (P10275 1-920 T878A): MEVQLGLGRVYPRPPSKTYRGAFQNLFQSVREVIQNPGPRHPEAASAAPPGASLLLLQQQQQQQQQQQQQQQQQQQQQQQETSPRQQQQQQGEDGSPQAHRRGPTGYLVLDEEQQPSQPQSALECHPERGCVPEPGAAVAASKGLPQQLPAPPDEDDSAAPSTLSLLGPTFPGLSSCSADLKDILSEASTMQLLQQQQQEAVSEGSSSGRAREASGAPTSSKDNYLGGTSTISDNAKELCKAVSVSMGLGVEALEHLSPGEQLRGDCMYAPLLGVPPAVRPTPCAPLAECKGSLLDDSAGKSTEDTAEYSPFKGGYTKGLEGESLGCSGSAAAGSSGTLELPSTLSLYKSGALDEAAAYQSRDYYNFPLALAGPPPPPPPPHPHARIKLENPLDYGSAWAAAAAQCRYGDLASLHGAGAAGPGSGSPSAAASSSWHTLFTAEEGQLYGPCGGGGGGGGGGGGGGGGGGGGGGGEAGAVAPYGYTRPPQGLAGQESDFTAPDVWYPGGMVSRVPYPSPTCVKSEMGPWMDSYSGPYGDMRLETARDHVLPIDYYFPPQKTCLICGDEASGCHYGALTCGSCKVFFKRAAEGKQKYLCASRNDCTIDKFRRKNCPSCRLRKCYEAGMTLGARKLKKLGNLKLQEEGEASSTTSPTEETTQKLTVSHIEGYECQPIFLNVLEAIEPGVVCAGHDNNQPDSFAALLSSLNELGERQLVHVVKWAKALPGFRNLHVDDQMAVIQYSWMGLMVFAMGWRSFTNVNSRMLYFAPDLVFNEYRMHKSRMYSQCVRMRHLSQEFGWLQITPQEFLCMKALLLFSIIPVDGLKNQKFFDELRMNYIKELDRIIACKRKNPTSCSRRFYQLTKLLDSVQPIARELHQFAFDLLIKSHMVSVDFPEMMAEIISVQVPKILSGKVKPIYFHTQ
As to the kind of experiment: AR down-regulation, western blot analysis in LNCaP cells. Format: cell-based. Conditions: at 15 μM, 24 h. How it is done: (§1) For the Western blot analyses, LNCaP or CWR22v1 prostate cancer cells were cultured. The cells were then treated with the indicated compounds and whole cell lysates were prepared using RIPA lysis buffer (Sigma Aldrich) and protease and phosphatase inhibitors (Sigma Aldrich). All of the antibodies were ordered from cell signaling technology. Protein content was determined using the Bradford Assay (Bio-Rad, Hercules, Calif., USA). Protein was subjected to SDS-PAGE and transferred onto nitrocellulosemembrane. Membranes were then incubated with secondary antibody (cell signaling technology) at room temperature for 1 hour. Bands were visualized by chemiluminescence (Millipore). Protein expression was normalized to β-actin and densitometry was carried out using Image J or ImageQuant 5.0 (Molecular Dynamics, Sunnyvale, Calif., USA). CWR22Rv1 cells were used for endogenous levels of splice variant AR-3. Protein levels were analyzed with respective antibodies; full length AR and β-actin antibodies were purchased from cell signaling, antibody specific for splice variant AR-3 was obtained from Dr. Yun Qiu, University of Maryland, School of Medicine, Baltimore.
For orientation: Immunoblotting shows a protein as a band on a membrane.

The target of data set [2] is T1, AR. As to the kind of experiment: Immunocytochemical analysis of AR expression in LNCaP cells. Format: cell-based. Conditions: 5 μM for 48 h.
Data set [3] relates to full-length AR. As to the kind of experiment: Down-regulation of full-length AR, western blot in CWR22rv1 cells. Format: cell-based, human. Conditions: CWR22rv1 prostate cancer cell line. How it is done: (§2) Due to the potential implication of AR splice variants lacking the ligand-binding domain (truncated AR) in driving the progression of CRPC, the effects of the compounds on the down-regulation of AR-3 (also called AR-V7) were determined.
as §1, with “USA).” for “USA). CWR22Rv1 cells were used for endogenous levels of splice variant AR-3. Protein levels were analyzed with respective antibodies; full length AR and β-actin antibodies were purchased from cell signaling, antibody specific for splice variant AR-3 was obtained from Dr. Yun Qiu, University of Maryland, School of Medicine, Baltimore.”

The target in data set [4] is T2, AR-3 (also called AR-V7) (Homo sapiens, UniProt P10275).
T2 construct: endogenous in cells; host or cells: CWR22Rv1
T2 sequence (P10275 1-644 isoform P10275-3): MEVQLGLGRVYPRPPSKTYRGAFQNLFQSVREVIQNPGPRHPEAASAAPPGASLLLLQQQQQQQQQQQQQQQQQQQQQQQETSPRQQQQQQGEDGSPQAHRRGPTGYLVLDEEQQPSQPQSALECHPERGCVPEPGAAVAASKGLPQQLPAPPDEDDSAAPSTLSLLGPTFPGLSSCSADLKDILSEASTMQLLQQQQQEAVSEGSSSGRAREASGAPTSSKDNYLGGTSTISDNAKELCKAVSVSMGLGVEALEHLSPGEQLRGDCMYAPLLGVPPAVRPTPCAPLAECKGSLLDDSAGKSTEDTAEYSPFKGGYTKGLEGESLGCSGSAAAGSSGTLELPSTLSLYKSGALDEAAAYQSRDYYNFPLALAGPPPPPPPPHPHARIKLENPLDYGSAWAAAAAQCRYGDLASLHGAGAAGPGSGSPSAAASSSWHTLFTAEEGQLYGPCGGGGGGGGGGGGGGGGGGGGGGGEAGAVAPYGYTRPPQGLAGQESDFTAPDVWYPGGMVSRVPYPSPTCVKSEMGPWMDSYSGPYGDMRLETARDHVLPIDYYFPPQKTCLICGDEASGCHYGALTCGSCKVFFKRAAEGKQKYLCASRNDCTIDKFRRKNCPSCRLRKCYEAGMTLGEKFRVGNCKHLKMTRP
As to the kind of experiment: Down-regulation of truncated AR splice variant, western blot in CWR22rv1 cells. As to conditions: CWR22rv1 prostate cancer cell line. Format: cell-based. How it is done:
as §2
as §1, with “USA).” for “USA). CWR22Rv1 cells were used for endogenous levels of splice variant AR-3. Protein levels were analyzed with respective antibodies; full length AR and β-actin antibodies were purchased from cell signaling, antibody specific for splice variant AR-3 was obtained from Dr. Yun Qiu, University of Maryland, School of Medicine, Baltimore.”

Data set [5] has as its target T3, human CYP17A1 (CYP171dH) (Homo sapiens, UniProt P05093).
T3 sequence (P05093 with tags, fused parts or gaps limits assumed): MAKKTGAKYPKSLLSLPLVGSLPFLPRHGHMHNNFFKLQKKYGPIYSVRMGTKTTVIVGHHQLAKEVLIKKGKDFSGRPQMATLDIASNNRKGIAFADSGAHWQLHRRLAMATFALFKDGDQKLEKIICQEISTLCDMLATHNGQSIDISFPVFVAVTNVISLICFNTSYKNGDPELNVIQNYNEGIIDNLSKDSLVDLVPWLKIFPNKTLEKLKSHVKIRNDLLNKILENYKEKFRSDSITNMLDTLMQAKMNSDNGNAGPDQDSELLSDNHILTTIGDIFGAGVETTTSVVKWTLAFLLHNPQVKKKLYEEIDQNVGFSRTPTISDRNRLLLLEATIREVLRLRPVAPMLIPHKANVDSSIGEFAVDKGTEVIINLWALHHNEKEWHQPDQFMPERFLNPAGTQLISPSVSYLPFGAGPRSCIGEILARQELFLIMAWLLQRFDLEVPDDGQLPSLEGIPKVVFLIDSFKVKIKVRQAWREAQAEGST
As to the kind of experiment: CYP17 inhibition studies. Format: biochemical. As to conditions: each in duplicate, from dose-response curves. The protocol: Some compounds were evaluated for their ability to inhibit CYP17 enzyme. A truncated version of human CYP17A1 (CYP171dH) was expressed in E. coli and then purified to homogeneity.

In data set [6] the test system is LNCaP cells. The experiment in a line: MTT colorimetric anti-proliferative assay. Format: cell-based, human. The protocol: The cells were treated for 7 days with renewal of test compound and media on day 4. On the 7th day, medium was renewed and MTT (3-(4,5-dimethylthiazol-2-yl)-2,5-diphenyl-2H-tetrazolium bromide) (Sigma, St Louis, Mo., USA) solution (0.5 mg MTT per ml of media) was added to the medium such that the ratio of MTT: medium was 1:10. The cells were incubated with MTT for 2 hours. The medium was then aspirated and DMSO was added to solubilize the violet MTT-formazan product.

Data set [7] addresses T4, AR in LNCaP cells (Homo sapiens, UniProt P10275, T878A).
T4 sequence (P10275 1-920 T878A): T1 sequence (P10275 1-920 T878A)
The experiment in a line: Whole cell competitive binding assay with [3H]R1881. Conditions: read-out: inhibition of [3H]R1881 binding / displacement.
Experimental: The androgen receptor competitive binding assays were performed with the synthetic androgen methyltrienolone [^3H]R1881. […] To determine the kinetics of [^3H]R1881 binding to the LNCaP AR cells were plated (2-3×10^5 cells/well) in 24 well multiwell dishes in steroid-free medium and allowed to attach. […] Following a 2 hour incubation period at 37° C., cells were washed twice with ice-cold DPBS and solubilized in DPBS containing 0.5% SDS and 20% glycerol. Extracts were removed and cell associated radioactivity counted in a scintillation counter. The data was analyzed, including Kd and Bmax determination, by nonlinear regression using Graphpad Prism software (GraphPad Software, Inc, San Diego, Calif.). When the concentration of [^3H]R1881 required to almost saturate AR in both cell lines was established (5.0 nM), the ability of the test compounds (1 nM-10 μM) to displace [^3H]R1881 (5.0 nM) from the receptors was determined as described above. The IC50 of each compound was determined by nonlinear regression with Graphpad Prism software (GraphPad Software, Inc, San Diego, Calif.).

The record followed here is patent US9884067B2, “Androgen receptor down-regulating agents and uses thereof” (UNIVERSITY OF MARYLAND EASTERN SHORE, priority 2013, dated 2018).

Several values for one entry are separate records, joined by “and”; a condition that tells them apart may be missing. Identical values can stand only once.

With `C[C@]12CC[C@H](OC(=O)n3ccnc3)CC1=CC[C@@H]1[C@@H]2CC[C@]2(C)C(n3cnc4ccccc43)=CC[C@@H]12` [Compound 47, 3β-(1H-Imidazole-1-carboxylate)-17-(1H-benzimidazol-1-yl)-androsta-5,16-diene], the melting point (usually the temperature, or range, at which the solid turns liquid) is 194 to 196 °C. For the same compound, the “AR down-regulation, fold more active than compound 5” value in data set [1] is on record as “greater than 8 fold”. For the same compound, the “AR levels in the nucleus” value in data set [2] is “significant decrease in AR levels in the nucleus”. Further, the “down-regulation of full-length AR” value in data set [3] is on record as “significant down-regulation”. Also, in data set [4], the “down-regulation of truncated AR (AR-3)” value was “significant down-regulation”. In addition, the IC50 (commonly the concentration at which inhibition is half-maximal) in data set [5] was 93.7 to 258 µM and 122 µM. The GI50 (in general, the concentration that inhibits growth by half) in data set [6] (Homo sapiens, LNCaP, 168 h, LNCaP, MTT, 7 days, Table 4, read-out: GI50 of C-3 modified compounds) was found to be 0.87 µM. Further, the “fold superior anti-proliferative activity” value in data set [6] (relative to compound 5) is ~4 fold. In addition, the inhibition at 30 µM in data set [7] was 20%.
